Legend:
[1] = test system: primary mouse hepatocytes; test: In vitro BrdU incorporation in primary mouse hepatocytes; type: cell-based; conditions: 48 hours incubation
Protocol: FIGS. 2A-2E depict non-cell autonomous promotion of hepatocellular proliferation by FGF19. 11 week old mice (n=5 per group) were implanted with osmotic pumps releasing BrdU (8.5 mg/kg/day) and FGF19 protein (0.4 mg/kg/day). Livers were harvested 6 days post-implant. (FIG. 2A) Flow cytometry analysis of BrdU-labeled livers is shown. Representative histograms from hepatocytes stained with 7-ADD and anti-BrdU-APC are shown. (FIG. 2B) BrdU-positive hepatocytes as a percentage of total hepatocytes from vehicle (V)-treated (n=5) or FGF19-treated (n=5) mice were quantified by flow cytometry. (FIG. 2C) Shown are circulating FGF19 levels on day 6 post-implant of osmotic pumps. (FIG. 2D) Lack of proliferative effects of FGF19 on primary mouse hepatocytes. Primary cultures of hepatocytes isolated from mouse liver were incubated with recombinant FGF19 protein at the indicated concentrations for 48 hours and BrdU was added during the last 20 hours of incubation. BrdU incorporation was determined using a luminescence method. Mouse hepatocyte growth factor (mHGF) was included as a positive control. RLU, relative luminescence unit. (FIG. 2E) Lack of proliferative effects of FGF19 on primary human hepatocytes. Primary cultures of hepatocytes isolated from human liver were incubated with recombinant FGF19 protein. Human hepatocyte growth factor (hHGF) was included as a positive control. […]

[2] = test system: primary human hepatocytes; test: In vitro pSTAT3 activation in primary human hepatocytes; type: cell-based; conditions: purified primary human hepatocytes, 50 ng/ml
Protocol: In vitro pSTAT3 activation. Primary human hepatocytes were isolated from consenting donors using a modified collagenase/pronase method (BioReclamation/IVT). Cells were diluted in attachment media (DMEM supplemented with 2 mM glutamine, 100 unit/ml penicillin, 100 unit/ml streptomycin, and 10% FBS), and cells were plated on collagen-coated 6-well plate (Becton Dickinson). Four hours later, cells were changed into William's E media containing dexamethasone/T3/insulin and cultured for 16 hours at 37° C. When indicated, 50 ng/ml FGF19 protein or 50 ng/ml human IL-6 (Peprotech) were added.
Cell extracts were prepared in 50 mM Tris-Cl, PH 7.2, 150 mM NaCl, 1% NP-40, 0.1% SDS, 0.5% sodium deoxycholate supplemented with a protease inhibitor cocktail (Roche) and phosphatase inhibitors (Sigma, phosphatase inhibitor cocktail set 2 and set 3), and protein concentrations were determined by BCA protein assay (Thermo Scientific).
Immunoblotting. […] Membranes were washed in TBST extensively, and bound proteins were detected with horseradish peroxidase-conjugated goat-anti-mouse IgG or goat-anti-rabbit IgG antibodies (GE Healthcare) for 1 hour at room temperature. […]
To investigate an in vitro direct effect of FGF19 on STAT3 activation in isolated hepatocytes, pSTAT3^Y705 levels in primary cultures of hepatocytes upon FGF19 stimulation were analyzed by western blotting. […]

FGF19-induced HCC = test: Tumorigenicity study in IL-6-deficient mice; type: in vivo; conditions: both Il6+/+ and Il6-/- mice, AAV-expressed FGF19
Protocol: (§1) Histology and immunohistochemistry. […] Hematoxylin and eosin staining was performed using standard methods. […] When indicated, sections were counterstained with hematoxylin.
Tumorigenicity study in IL-6-deficient mice. Il6^−/− mice were backcrossed to C57BL/6 mice for at least nine generations. Age and gender-matched wild type C57BL6 mice were used as Il6^+/+ controls. […] Body weight, body composition, and blood glucose were measured at designated times. Mice were euthanized 52 weeks post-AAV administration for liver tumor assessment.

FGF19-mediated HCC = test: Anti-IL-6 treatment in Mdr2-/- mice expressing AAV-FGF19; type: in vivo; conditions: prolonged expression of FGF19
Protocol: Blood parameters. […] Serum insulin was assessed with ELISA kits from ALPCO. […] All assays were performed according to the manufacturers' instructions.
as §1
Anti-IL-6 treatment in Mdr2^−/− mice. […] Anti-IL-6 treatment started 14 weeks after AAV injection. Mice were dosed with anti-mouse IL-6 antibody (Bio-X-Cell) or an isotype control antibody (Bio-X-Cell) once weekly i.p. at 10 mg/kg for a total of 10 doses. Mice were euthanized 24 weeks post-AAV administration for liver tumor assessment. When indicated, Mdr2^−/− mice injected with AAV-GFP serve as controls for evaluating serum levels of liver enzymes.

How did the BrdU signal [1] turn out when “FGF19: Fibroblast growth factor 19, mature human 194 amino acid polypeptide (SEQ ID NO: 1); recombinant protein or AAV-expressed” was run?
Its BrdU signal is “no increase”.

And the “STAT3 activation (pSTAT3 Y705)” value [2]?
The value was “lack of STAT3 activation”.

And the Body fat composition (FGF19-induced HCC)?
Its Body fat composition is “efficiently reduced”.

What about the Liver tumor formation (FGF19-mediated HCC) of the same substance?
The Liver tumor formation was “induced liver tumor formation”.

— patent publication US11370841B2, “Methods of treating fibroblast growth factor 19-mediated cancers and tumors” (NGM Biopharmaceuticals, Inc., priority 2016, dated 2022)
